8 molecules from patent US20070099259A1, “ELECTROCHEMICAL ASSAY FOR THE IDENTIFICATION OF MICROORGANISMS” (RAPID LABORATORY MICROSYSTEMS INC., priority 2003, published 2007) can be followed below.

What all share (experiment): Relative respiratory activity with 22 effectors (Example 3)
For one assay, the system named is P. aeruginosa. Format: cell-based, Pseudomonas aeruginosa. The settings on record: for activity at 10000 µM: read-out: relative %-respiratory activity. From the text: (§1) In this example, each microorganism is subjected to 22 different effector compounds in addition to control measurements. […] For each microorganism, duplicate measurements were made of 22 different effector compounds. In addition, duplicate measurements were made a control test containing no effector compound. One additional measurement was made of a control solution containing the microorganism with ferricyanide but without effector or DCIP.
(§2) In this example, each normalized data set containing duplicate measurements for each of 22 effector compounds is referenced to the duplicate internal controls to allow batch-to-batch comparison. The obtained signals of charge per unit electrode area for the duplicate control measurements are averaged and set at 100% respiratory cycle activity. […] The data set used to generate pattern recognition plots consists of 5 replicate batches (each batch containing duplicate measurements for each of 22 effector compounds) for each cell culture (10 strains). This is used to generate a 50 (columns)×22 (rows) matrix. The matrix is imported into MATLAB (Version 6.0). Factor analysis is performed using the MATLAB Chemometric Toolbox (Version 2.3) and involves the generation of reduced eigenvectors to determine the optimal number of factors, examination of the resulting residuals plots for randomness, and the generation of scores for the first four principle components.

The subject of another assay is S. cerevisiae. Format: cell-based, Saccharomyces cerevisiae. To be noted: for activity at 10000 µM: read-out: relative %-respiratory activity.
Text: as §1, §2

For another assay, the system named is S. aureus ATCC6538P. In kind it is cell-based, Staphylococcus aureus. To be noted: for activity at 10000 µM: read-out: relative %-respiratory activity.
Text: as §1, §2

A further assay concerns E. coli B. Format: cell-based. The settings on record: for activity at 10000 µM: read-out: relative %-respiratory activity.
Text: as §1, §2

The next assay deals with E. coli Neotype. In kind it is cell-based. To be noted: for activity at 10000 µM: read-out: relative %-respiratory activity.
Text: as §1, §2

A further assay relates to E. coli JM105. Format: cell-based.
Text: as §1, §2

The subject of the next assay is E. coli HB101. Format: cell-based.
Text: as §1, §2

In a further assay the test system is E. faecalis. In kind it is cell-based, Enterococcus faecalis. The settings on record: for activity at 10000 µM: read-out: relative %-respiratory activity.
Text: as §1, §2

The subject of the next assay is E. aerogenes ATCC13048e. In kind it is cell-based, Enterobacter aerogenes. The settings on record: for activity at 10000 µM: read-out: relative %-respiratory activity.
Text: as §1, §2

In another assay the test system is P. vulgaris ATCC6380. In kind it is cell-based, Proteus vulgaris.
Text: as §1, §2

Where [1] appears, read: effector 10 mM, 5 μM DCIP, no effector = 100%, n = 18.
Where [2] appears, read: effector 10 mM, 5 μM DCIP, no effector = 100%, n = 10.
[3] abbreviates: effector 10 mM, 5 μM DCIP, no effector = 100%, n = 20.
Setting [4] is: effector 10 mM, 5 μM DCIP, no effector = 100%, n = 26.
Where [5] appears, read: Pseudomonas aeruginosa, effector 10 mM, 5 μM DCIP, no effector = 100%, n = 18.
Setting [6] is: Saccharomyces cerevisiae, effector 10 mM, 5 μM DCIP, no effector = 100%, n = 10.
Where [7] appears, read: Staphylococcus aureus, ATCC6538P, effector 10 mM, 5 μM DCIP, no effector = 100%, n = 20.
[8] abbreviates: Escherichia coli, effector 10 mM, 5 μM DCIP, no effector = 100%, n = 26.
Where [9] appears, read: Escherichia coli, JM105, effector 10 mM, 5 μM DCIP, no effector = 100%, n = 10, read-out: relative %-respiratory activity.
The mark [10] stands for this setting: Escherichia coli, HB101, effector 10 mM, 5 μM DCIP, no effector = 100%, n = 18, read-out: relative %-respiratory activity.
Where [11] appears, read: Enterococcus faecalis, effector 10 mM, 5 μM DCIP, no effector = 100%, n = 20.
The mark [12] stands for this setting: Klebsiella aerogenes, ATCC13048E, effector 10 mM, 5 μM DCIP, no effector = 100%, n = 26.
Setting [13] is: Proteus vulgaris, ATCC6380, effector 10 mM, 5 μM DCIP, no effector = 100%, n = 20, read-out: relative %-respiratory activity.

Where two headings read alike, the source gives them in different places.

On to `OC[C@@H](O)[C@@H](O)[C@H](O)[C@@H](O)CO` [D-sorbitol], for which the activity at 30000 µM in the assay on P. aeruginosa (Pseudomonas aeruginosa, effector 30 mM, 5 μM DCIP, no effector = 100%, n = 18) was determined as 104%; with S. cerevisiae (Saccharomyces cerevisiae, effector 30 mM, 5 μM DCIP, no effector = 100%, n = 10), 113%; with S. aureus ATCC6538P (Staphylococcus aureus, ATCC6538P, effector 30 mM, 5 μM DCIP, no effector = 100%, n = 20), 167%; in the assay with E. coli B (Escherichia coli, effector 30 mM, 5 μM DCIP, no effector = 100%, n = 10), 136%; in the assay with E. coli Neotype (Escherichia coli, effector 30 mM, 5 μM DCIP, no effector = 100%, n = 26) it was 111%; in the assay with E. coli JM105 (Escherichia coli, JM105, effector 30 mM, 5 μM DCIP, no effector = 100%, n = 10) it was 168%. In addition, the activity at 30000 µM in the assay with E. coli HB101 (Escherichia coli, HB101, effector 30 mM, 5 μM DCIP, no effector = 100%, n = 18) amounted to 124%; in the assay with E. faecalis (Enterococcus faecalis, effector 30 mM, 5 μM DCIP, no effector = 100%, n = 20), 179%; in the assay with E. aerogenes ATCC13048e (Klebsiella aerogenes, ATCC13048E, effector 30 mM, 5 μM DCIP, no effector = 100%, n = 26), 260%; with P. vulgaris ATCC6380 (Proteus vulgaris, ATCC6380, effector 30 mM, 5 μM DCIP, no effector = 100%, n = 20), 186%.

With `NCCC[C@H](N)C(=O)O` [L-ornithine], the activity at 5000 µM was determined as 148% with P. aeruginosa (Pseudomonas aeruginosa, effector 5 mM, 5 μM DCIP, no effector = 100%, n = 18); 137% in the assay on S. cerevisiae (Saccharomyces cerevisiae, effector 5 mM, 5 μM DCIP, no effector = 100%, n = 10); 154% in the assay with S. aureus ATCC6538P (Staphylococcus aureus, ATCC6538P, effector 5 mM, 5 μM DCIP, no effector = 100%, n = 20); 135% with E. coli B (Escherichia coli, effector 5 mM, 5 μM DCIP, no effector = 100%, n = 10); 134% with E. coli Neotype (Escherichia coli, effector 5 mM, 5 μM DCIP, no effector = 100%, n = 26); 165% with E. coli JM105 (Escherichia coli, JM105, effector 5 mM, 5 μM DCIP, no effector = 100%, n = 10). Moreover, the activity at 5000 µM with E. coli HB101 (Escherichia coli, HB101, effector 5 mM, 5 μM DCIP, no effector = 100%, n = 18) was determined as 114%; in the assay with E. faecalis (Enterococcus faecalis, effector 5 mM, 5 μM DCIP, no effector = 100%, n = 20), 138%; with E. aerogenes ATCC13048e (Klebsiella aerogenes, ATCC13048E, effector 5 mM, 5 μM DCIP, no effector = 100%, n = 26), 142%; in the assay with P. vulgaris ATCC6380 (Proteus vulgaris, ATCC6380, effector 5 mM, 5 μM DCIP, no effector = 100%, n = 20), 151%.

On to `O=C(O)CCC(=O)C(=O)O` [Alpha-ketoglutarate], for which the relative %-respiratory activity in the assay on P. aeruginosa (setting [1]) was 97%; in the assay with S. cerevisiae (setting [2]) it was 124%; in the assay on S. aureus ATCC6538P (setting [3]), 115%; in the assay on E. coli B (setting [2]), 130%; in the assay with E. coli Neotype (setting [4]), 100%; with E. coli JM105 (setting [2]), 142%. Also, the relative %-respiratory activity is listed as 116% in the assay on E. coli HB101 (setting [1]), 109% with E. faecalis (setting [3]), 102% in the assay with E. aerogenes ATCC13048e (setting [4]) and 201% in the assay with P. vulgaris ATCC6380 (setting [3]).

Consider `OC[C@H]1O[C@@H]2O[C@H]3[C@H](O)[C@@H](O)[C@@H](O[C@H]4[C@H](O)[C@@H](O)[C@@H](O[C@H]5[C@H](O)[C@@H](O)[C@@H](O[C@H]6[C@H](O)[C@@H](O)[C@@H](O[C@H]7[C@H](O)[C@@H](O)[C@@H](O[C@H]8[C@H](O)[C@@H](O)[C@@H](O[C@H]1[C@H](O)[C@H]2O)O[C@@H]8CO)O[C@@H]7CO)O[C@@H]6CO)O[C@@H]5CO)O[C@@H]4CO)O[C@@H]3CO` [Beta-cyclodextrin], for which the activity at 10000 µM is 90% with P. aeruginosa (setting [5]); 112% in the assay on S. cerevisiae (setting [6]); 98% with S. aureus ATCC6538P (setting [7]); 125% in the assay on E. coli B (Escherichia coli, effector 10 mM, 5 μM DCIP, no effector = 100%, n = 10); 81% in the assay with E. coli Neotype (setting [8]); 187% in the assay with E. coli JM105 (setting [9]). The activity at 10000 µM amounted to 132% with E. coli HB101 (setting [10]), 155% in the assay on E. faecalis (setting [11]), 110% with E. aerogenes ATCC13048e (setting [12]) and 151% with P. vulgaris ATCC6380 (setting [13]).

Take `NCCCC[C@H](N)C(=O)O` [L-lysine]: the activity at 10000 µM was 186% with P. aeruginosa (Pseudomonas aeruginosa); 240% in the assay on S. cerevisiae (Saccharomyces cerevisiae); 159% in the assay with S. aureus ATCC6538P (Staphylococcus aureus, ATCC6538P); 100% with E. coli B (Escherichia coli); 101% in the assay with E. coli Neotype (Escherichia coli); 118% with E. coli JM105 (Escherichia coli, JM105, read-out: relative %-respiratory activity). Also, the activity at 10000 µM in the assay with E. coli HB101 (Escherichia coli, HB101, read-out: relative %-respiratory activity) came to 125%; in the assay on E. faecalis (Enterococcus faecalis), 243%; in the assay with E. aerogenes ATCC13048e (Klebsiella aerogenes, ATCC13048E), 125%; in the assay with P. vulgaris ATCC6380 (Proteus vulgaris, ATCC6380, read-out: relative %-respiratory activity), 219%.

In the case of `O=C[C@H](O)[C@@H](O)[C@@H](O)[C@H](O)CO` [D-galactose], the activity at 20000 µM with P. aeruginosa (Pseudomonas aeruginosa, effector 20 mM, 5 μM DCIP, no effector = 100%, n = 18) turned out to be 130%; in the assay on S. cerevisiae (Saccharomyces cerevisiae, effector 20 mM, 5 μM DCIP, no effector = 100%, n = 10), 143%; in the assay with S. aureus ATCC6538P (Staphylococcus aureus, ATCC6538P, effector 20 mM, 5 μM DCIP, no effector = 100%, n = 20), 195%; with E. coli B (Escherichia coli, effector 20 mM, 5 μM DCIP, no effector = 100%, n = 10), 165%; with E. coli Neotype (Escherichia coli, effector 20 mM, 5 μM DCIP, no effector = 100%, n = 26) it was 155%; with E. coli JM105 (Escherichia coli, JM105, effector 20 mM, 5 μM DCIP, no effector = 100%, n = 10), 173%. In addition, the activity at 20000 µM was found to be 153% with E. coli HB101 (Escherichia coli, HB101, effector 20 mM, 5 μM DCIP, no effector = 100%, n = 18); 200% with E. faecalis (Enterococcus faecalis, effector 20 mM, 5 μM DCIP, no effector = 100%, n = 20); 334% in the assay on E. aerogenes ATCC13048e (Klebsiella aerogenes, ATCC13048E, effector 20 mM, 5 μM DCIP, no effector = 100%, n = 26); 341% in the assay with P. vulgaris ATCC6380 (Proteus vulgaris, ATCC6380, effector 20 mM, 5 μM DCIP, no effector = 100%, n = 20).

For `O=P(O)(O)OC(CO)CO` [Beta-glycerophosphate], the relative %-respiratory activity came to 114% with P. aeruginosa (setting [1]); 105% in the assay on S. cerevisiae (setting [2]); 114% in the assay with S. aureus ATCC6538P (setting [3]); 108% with E. coli Neotype (setting [4]); 121% in the assay on E. coli JM105 (setting [2]); 110% in the assay with E. coli HB101 (setting [1]). Moreover, the relative %-respiratory activity in the assay with E. faecalis (setting [3]) was 120%; in the assay with E. aerogenes ATCC13048e (setting [4]), 131%; with P. vulgaris ATCC6380 (setting [3]), 136%.

As for `O=C(O)CC(=O)O` [Malonic acid], the activity at 10000 µM turned out to be 125% with P. aeruginosa (setting [5]); 110% in the assay with S. cerevisiae (setting [6]); 117% in the assay on S. aureus ATCC6538P (setting [7]); 141% in the assay on E. coli Neotype (setting [8]); 160% with E. coli JM105 (setting [9]); 124% in the assay with E. coli HB101 (setting [10]). The activity at 10000 µM with E. faecalis (setting [11]) amounted to 146%; in the assay on E. aerogenes ATCC13048e (setting [12]), 156%; in the assay with P. vulgaris ATCC6380 (setting [13]), 125%.
